Data: patent publication US20260176265A1 (Cancer Research Technology Limited, priority 2022, published 2026)

What was measured:
[1] = molecular target: CtermHisTag-mEGFR Wild type (Homo sapiens, UniProt P00533); assay: TR-FRET probe displacement assay, EGFR wild type; assay type: binding; conditions: EGFR wild type 1.25 nM, probe 100 nM, 30 mins room temperature
Method in brief: (§1)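 Ten-point compound series, 100000 to 3 nM final, tested against His-tagged EGFR (wild type or C797S/L858R/T790M) for probe displacement. TR-FRET read at Ex337 nm, Em490/520 nm; run in technical replicate, biological duplicate.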

[2] = molecular target: T1, Phospho-EGFR (Tyr1068) in A431 cells (Homo sapiens, UniProt P00533); assay: HTRF pEGFR/total EGFR assay in A431 cells (EGF stimulated); assay type: cell-based; conditions: compound 2.5 hours then 100 ng/ml EGF 30 mins, ratio pEGFR/total EGFR
T1 construct: endogenous in cells; host or cells: A431
Method in brief: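 A431 cells pretreated with compounds 2.5 h (0.1% DMSO), then stimulated with 100 ng/ml EGF for 30 min. Lysates assayed by HTRF for phospho-EGFR (Tyr1068) and total EGFR, read at 665/620 nm. Values are pEGFR/total EGFR ratio as percentage of 0uM control.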

[3] = molecular target: CtermHisTag-mEGFR Triple Mutant - C797S, L858R, T790M (Homo sapiens, UniProt P00533, C797S/L858R/T790M); assay: TR-FRET probe displacement assay, EGFR triple mutant; assay type: binding; conditions: T790M 1.25 nM, probe 100 nM, 30 mins room temperature
Method in brief: as §1

[4] = molecular target: T2, Phospho-EGFR (Tyr1068) in H1975 C797S cells (Homo sapiens, UniProt P00533, C797S/L858R/T790M); assay: HTRF pEGFR/total EGFR assay in H1975 C797S cells; assay type: cell-based; conditions: H1975 C797S cells (CRISPR), compound 3 hours, ratio pEGFR/total EGFR
T2 construct: endogenous in cells; host or cells: H1975 C797S (CRISPR-edited in house from ATCC CRL-5908)
Method in brief: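 H1975 cells carrying CRISPR-engineered EGFR C797S (with L858R/T790M) were exposed to compounds for 3 h at 0.1% DMSO, in duplicate. Lysates were read with HTRF kits for pEGFR Tyr1068 and total EGFR at 665/620 nm. Values are the pEGFR/total EGFR ratio as percent of the 0 uM control.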

[5] = molecular target: T3, Phospho-EGFR (Tyr1068) in H1975 cells (Homo sapiens, UniProt P00533, L858R/T790M); assay: HTRF pEGFR/total EGFR assay in H1975 cells; assay type: cell-based; conditions: compound 3 hours, ratio pEGFR/total EGFR
T3 construct: host or cells: H1975
Method in brief: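 H1975 cells (EGFR L858R/T790M) adhered 24 h, then compound-treated for 3 h in duplicate, 0.1% DMSO final. Lysates read by HTRF at 665/620 nm for phospho-Tyr1068 and total EGFR. Value is pEGFR/total EGFR ratio as % of 0 uM control.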

T1 sequence (P00533 25-1210): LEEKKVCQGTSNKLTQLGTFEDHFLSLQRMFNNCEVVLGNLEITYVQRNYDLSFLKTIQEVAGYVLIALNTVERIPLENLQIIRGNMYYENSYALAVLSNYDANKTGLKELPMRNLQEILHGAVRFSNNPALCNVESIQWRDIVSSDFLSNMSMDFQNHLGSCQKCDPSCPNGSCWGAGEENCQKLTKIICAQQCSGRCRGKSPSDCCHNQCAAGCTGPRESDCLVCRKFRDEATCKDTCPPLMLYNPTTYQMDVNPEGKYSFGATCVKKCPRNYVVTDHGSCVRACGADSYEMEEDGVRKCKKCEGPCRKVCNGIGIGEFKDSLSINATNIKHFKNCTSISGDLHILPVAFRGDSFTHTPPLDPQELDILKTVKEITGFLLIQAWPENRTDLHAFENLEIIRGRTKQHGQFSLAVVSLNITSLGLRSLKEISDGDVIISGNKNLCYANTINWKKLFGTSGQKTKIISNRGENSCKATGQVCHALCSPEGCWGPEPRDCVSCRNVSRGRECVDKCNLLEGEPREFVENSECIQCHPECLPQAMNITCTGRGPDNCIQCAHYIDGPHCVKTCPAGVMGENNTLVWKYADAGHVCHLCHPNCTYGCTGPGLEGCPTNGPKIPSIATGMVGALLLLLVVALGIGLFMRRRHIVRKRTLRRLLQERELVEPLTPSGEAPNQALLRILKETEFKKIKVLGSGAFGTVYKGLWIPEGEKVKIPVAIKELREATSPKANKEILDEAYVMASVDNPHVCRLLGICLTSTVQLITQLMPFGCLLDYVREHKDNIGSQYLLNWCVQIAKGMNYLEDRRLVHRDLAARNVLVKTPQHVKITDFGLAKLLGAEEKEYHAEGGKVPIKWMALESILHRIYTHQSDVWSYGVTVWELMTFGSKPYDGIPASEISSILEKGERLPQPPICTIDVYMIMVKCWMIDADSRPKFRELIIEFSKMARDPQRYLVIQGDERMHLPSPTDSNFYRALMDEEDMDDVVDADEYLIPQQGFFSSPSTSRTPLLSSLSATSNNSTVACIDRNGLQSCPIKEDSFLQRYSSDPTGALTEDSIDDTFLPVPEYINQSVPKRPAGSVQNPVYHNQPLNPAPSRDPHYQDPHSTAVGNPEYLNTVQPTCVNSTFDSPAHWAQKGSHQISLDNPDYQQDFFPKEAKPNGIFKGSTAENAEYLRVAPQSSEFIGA
CtermHisTag-mEGFR Wild type, sequence (P00533 25-1210): as above
CtermHisTag-mEGFR Triple Mutant - C797S, L858R, T790M, sequence (P00533 25-1210 T790M/C797S/L858R): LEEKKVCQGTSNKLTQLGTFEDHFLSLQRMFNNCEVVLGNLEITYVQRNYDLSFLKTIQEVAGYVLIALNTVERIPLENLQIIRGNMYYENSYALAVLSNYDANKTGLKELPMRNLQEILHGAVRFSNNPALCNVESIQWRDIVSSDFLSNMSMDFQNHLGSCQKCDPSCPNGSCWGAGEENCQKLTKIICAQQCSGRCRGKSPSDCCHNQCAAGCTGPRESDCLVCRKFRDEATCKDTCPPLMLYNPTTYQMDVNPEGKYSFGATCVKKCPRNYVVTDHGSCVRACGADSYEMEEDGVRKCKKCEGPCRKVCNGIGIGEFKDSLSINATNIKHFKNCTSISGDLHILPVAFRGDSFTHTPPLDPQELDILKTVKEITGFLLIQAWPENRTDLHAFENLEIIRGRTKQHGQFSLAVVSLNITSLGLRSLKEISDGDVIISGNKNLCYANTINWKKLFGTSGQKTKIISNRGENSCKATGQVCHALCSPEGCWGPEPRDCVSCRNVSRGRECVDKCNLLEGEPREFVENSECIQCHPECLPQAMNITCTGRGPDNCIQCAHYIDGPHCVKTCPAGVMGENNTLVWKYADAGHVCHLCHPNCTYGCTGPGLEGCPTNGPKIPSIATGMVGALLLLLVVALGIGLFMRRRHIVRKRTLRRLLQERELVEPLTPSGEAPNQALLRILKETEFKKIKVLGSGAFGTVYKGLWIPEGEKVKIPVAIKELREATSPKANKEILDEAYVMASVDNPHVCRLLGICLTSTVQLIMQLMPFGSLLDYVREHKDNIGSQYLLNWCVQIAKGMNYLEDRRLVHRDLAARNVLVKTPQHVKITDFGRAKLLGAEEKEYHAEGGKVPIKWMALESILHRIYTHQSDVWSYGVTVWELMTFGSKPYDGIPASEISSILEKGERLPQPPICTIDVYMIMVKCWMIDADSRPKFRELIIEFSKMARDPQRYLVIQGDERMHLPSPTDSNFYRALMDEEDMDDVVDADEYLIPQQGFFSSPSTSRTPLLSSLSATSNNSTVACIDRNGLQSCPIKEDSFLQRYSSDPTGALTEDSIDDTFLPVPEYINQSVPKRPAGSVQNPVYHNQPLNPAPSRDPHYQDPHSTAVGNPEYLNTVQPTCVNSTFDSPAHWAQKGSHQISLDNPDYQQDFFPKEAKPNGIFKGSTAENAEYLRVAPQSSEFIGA
T2 sequence (P00533 25-1210 T790M/C797S/L858R): as above

SMILES | IC50 [1] [nM] | IC50 [2] [nM] | IC50 [3] [nM] | IC50 [4] [nM] | IC50 [5] [nM]
C#Cc1cc(NC(=O)NCc2ccnn2C)nc2nc(Nc3ccc(N4CCN(C)CC4)cc3)ncc12 [Example 48, 1-(5-ethynyl-2-{[4-(4-methylpiperazin-1-yl)phenyl]amino}pyrido[2,3-d]pyrimidin-7-yl)-3-[(2-methylpyrazol-3-yl)methyl]urea] | < 1000 | > 3000 | < 20 | < 500 | < 500
C#Cc1cc(OCc2cscn2)nc2nc(Nc3ccc(N4CCN(C)CC4)cc3)ncc12 [Example 13, 5-ethynyl-N-[4-(4-methylpiperazin-1-yl)phenyl]-7-(1,3-thiazol-4-ylmethoxy)pyrido[2,3-d]pyrimidin-2-amine] | > 10000 | > 3000 | 20 to 100 | > 3000 | 1000 to 3000
C#Cc1cc(NC(=O)NC2CCCC2)nc2nc(Nc3cccc4c3CCN(C)C4)ncc12 [Example 88, 3-Cyclopentyl-1-{5-ethynyl-2-[(2-methyl-3,4-dihydro-1H-isoquinolin-5-yl)amino]pyrido[2,3-d]pyrimidin-7-yl}urea] | > 10000 | > 3000 | 100 to 1000 | > 3000 | > 3000
C#Cc1cc(N2CC(C(C)C)OC2=O)nc2nc(Nc3ccc(N4CCN(C)CC4)cc3)ncc12 (stereo not drawn) [Example 113, 3-(5-Ethynyl-2-{[4-(4-methylpiperazin-1-yl)phenyl]amino}pyrido[2,3-d]pyrimidin-7-yl)-5-isopropyl-1.3-oxazolidin-2-one] | > 10000 | > 3000 | 20 to 100 | 1000 to 3000 | 500 to 1000
C#Cc1cc(NC(=O)NC2CCCC2)nc2nc(Nc3ccc(N(C)C(=O)CN(C)C)cc3)ncc12 [Example 83] | < 1000 | > 3000 | < 20 | < 500 | < 500
C#Cc1cc(N(C)C)nc2nc(Nc3ccc(N(C)CCN(C)C)cc3)ncc12 [Example 24, N^2-(4-{[2-(dimethylamino)ethyl](methyl)amino}phenyl)-5-ethynyl-N^7,N^7-dimethylpyrido[2,3-d]pyrimidine-2,7-diamine] | > 10000 | > 3000 | 1000 to 50000 | > 3000 | > 3000
C#Cc1c(C)c(NC(=O)NC2CCCC2)nc2nc(Nc3ccc(N4CCN(C)CC4)cc3)ncc12 [Example 72, 3-Cyclopentyl-1-(5-ethynyl-6-methyl-2-{[4-(4-methylpiperazin-1-yl)phenyl]amino}pyrido[2,3-d]pyrimidin-7-yl)urea] | < 1000 | > 3000 | < 20 | 1000 to 3000 | 500 to 1000
C#Cc1cc(N(C)C(=O)NC2CCCC2)nc2nc(Nc3ccc(N4CCN(C)CC4)cc3)ncc12 [Example 73, 3-Cyclopentyl-1-(5-ethynyl-2-{[4-(4-methylpiperazin-1-yl)phenyl]amino}pyrido[2,3-d]pyrimidin-7-yl)-1-methylurea] | < 1000 | > 3000 | < 20 | < 500 | < 500
C#Cc1cc(NC(=O)Cc2ccccc2)nc2nc(Nc3ccc(N4CCN(C)CC4)cc3)ncc12 [Example 30, N-(5-ethynyl-2-{[4-(4-methylpiperazin-1-yl)phenyl]amino}pyrido[2,3-d]pyrimidin-7-yl)-2-phenylacetamide] | 1000 to 10000 | > 3000 | < 20 | 1000 to 3000 | 1000 to 3000
C#Cc1cc(NC(=O)NC2CCCC2)nc2nc(Nc3ccc(N(C)C(=O)CN4CCC4)cc3)ncc12 [Example 78, 2-(Azetidin-1-yl)-N-[4-((7-[(cyclopentylcarbamoyl)amino]-5-ethynyl)pyrido[2,3-d]pyrimidin-2-ylamino)phenyl]-N-methylacetamide] | 1000 to 10000 | > 3000 | 100 to 1000 | > 3000 | > 3000
C#Cc1cc(N2C(=O)NCC23CCCC3)nc2nc(Nc3ccc(S(C)(=O)=O)cc3)ncc12 [Example 96, 1-{5-Ethynyl-2-[(4-methanesulfonylphenyl)amino]pyrido[2,3-d]pyrimidin-7-yl}-1,3-diazaspiro[4.4]nonan-2-one] | < 1000 | 1000 to 3000 | < 20 | 1000 to 3000 | 500 to 1000
C#Cc1cc(NC(=O)NC2CCOC2)nc2nc(Nc3ccc(N4CCN(C)CC4)cc3)ncc12 (stereo not drawn) [Example 42, 1-(5-ethynyl-2-{[4-(4-methylpiperazin-1-yl)phenyl]amino}pyrido[2,3-d]pyrimidin-7-yl)-3-(oxolan-3-yl)urea] | < 1000 | > 3000 | < 20 | < 500 | < 500
C#Cc1cc(N2C(=O)N(C)CC23CCCC3)nc2nc(Nc3ccc(N(C)C(=O)CN(C)C)cc3)ncc12 [Example 106, 2-(Dimethylamino)-N-{4-[(5-ethynyl-7-{3-methyl-2-oxo-1,3-diazaspiro[4.4]nonan-1-yl}pyrido[2,3-d]pyrimidin-2-yl)amino}phenyl]-N-methylacetamide] | 1000 to 10000 | 1000 to 3000 | 100 to 1000 | 1000 to 3000 | > 3000
C#Cc1cc(OC)nc2nc(Nc3ccc(N4CCN(C)CC4)c(Nc4ccccc4)c3)ncc12 [Example 6, N^1-{5-ethynyl-7-methoxypyrido[2,3-d]pyrimidin-2-yl}-4-(4-methylpiperazin-1-yl)-N^3-phenylbenzene-1,3-diamine] | 1000 to 10000 | > 3000 | 20 to 100 | > 3000 | 1000 to 3000
C#Cc1cc(NC(=O)NC2CCCC2)nc2nc(Nc3ccc(OCCN(C)C)cc3)ncc12 [Example 79, 3-Cyclopentyl-1-[2-((4-[2-(dimethylamino)ethoxyl]phenylamino)-5-ethynyl)pyrido[2,3-d]pyrimidin-7-yl]urea] | < 1000 | > 3000 | < 20 | < 500 | < 500
C#Cc1cc(NC(=O)N2CCCC2)nc2nc(Nc3ccc(N4CCN(C)CC4)cc3)ncc12 [Example 56, N-(5-ethynyl-2-{[4-(4-methylpiperazin-1-yl)phenyl]amino}pyrido[2,3-d]pyrimidin-7-yl)pyrrolidine-1-carboxamide] | > 10000 | > 3000 | 100 to 1000 | > 3000 | 1000 to 3000
C#Cc1cc(N2C(=O)OC[C@H]2C(C)C)nc2nc(Nc3ccc(N4CCN(C)CC4)cc3)ncc12 [Example 69, (4R)-3-(5-ethynyl-2-{[4-(4-methylpiperazin-1-yl)phenyl]amino}pyrido[2,3-d]pyrimidin-7-yl)-4-isopropyl-1,3-oxazolidin-2-one] | > 10000 | > 3000 | < 20 | 500 to 1000 | 500 to 1000
C#Cc1cc(-n2ccnc2)nc2nc(Nc3ccc(N4CCN(C)CC4)cc3)ncc12 [Example 35, 5-ethynyl-7-(imidazol-1-yl)-N-[4-(4-methylpiperazin-1-yl)phenyl]pyrido[2,3-d]pyrimidin-2-amine] | < 1000 | > 3000 | < 20 | > 3000 | 1000 to 3000
C#Cc1cc(NC(=O)NC2CN(S(C)(=O)=O)C2)nc2nc(Nc3ccc(N4CCN(C)CC4)cc3)ncc12 [Example 57, 1-(5-ethynyl-2-{[4-(4-methylpiperazin-1-yl)phenyl]amino}pyrido[2,3-d]pyrimidin-7-yl)-3-(1-methanesulfonylazetidin-3-yl)urea] | < 1000 | > 3000 | < 20 | > 3000 | > 3000
C#Cc1cc(NC(=O)NC2(C)CCOC2)nc2nc(Nc3ccc(N4CCN(C)CC4)cc3)ncc12 (stereo not drawn) [Example 62] | < 1000 | 500 to 1000 | < 20 | < 500 | < 500
C#Cc1cc(OC)nc2nc(Nc3ccc(N(C)CCN(C)C)cc3)ncc12 [Example 2, N^1-(2-(dimethylamino)ethyl)-N^4-(5-ethynyl-7-methoxypyrido[2,3-d]pyrimidin-2-yl)-N^1-methylbenzene-1,4-diamine] | > 10000 | > 3000 | 100 to 1000 | > 3000 | 1000 to 3000
